Data reported in patent publication US9981970B2, “Bicyclic ureas and thiadiazolidine-1, 1-dioxides as CETP inhibitors” (Merck Sharp & Dohme Corp., priority 2013, dated 2018).
pIC50: −log10 of the molar value. Read-outs that look alike come from different tables or passages of the source.

Tests used:
[1] = patients on anacetrapib with baseline statin therapy compared with patients treated with just a statin; cited from earlier work
[2] = biological target: T1, endogenous CETP from serum (Homo sapiens, UniProt P11597); assay: RTA assay in 95% human serum (in vitro radioactive assay of CETP-catalyzed CE and TG transfer); format: biochemical
T1 construct: yielding a concentration of approximately 15 nM endogenous CETP in the assay; from tissue; host or cells: human serum
T1 sequence (P11597 18-493): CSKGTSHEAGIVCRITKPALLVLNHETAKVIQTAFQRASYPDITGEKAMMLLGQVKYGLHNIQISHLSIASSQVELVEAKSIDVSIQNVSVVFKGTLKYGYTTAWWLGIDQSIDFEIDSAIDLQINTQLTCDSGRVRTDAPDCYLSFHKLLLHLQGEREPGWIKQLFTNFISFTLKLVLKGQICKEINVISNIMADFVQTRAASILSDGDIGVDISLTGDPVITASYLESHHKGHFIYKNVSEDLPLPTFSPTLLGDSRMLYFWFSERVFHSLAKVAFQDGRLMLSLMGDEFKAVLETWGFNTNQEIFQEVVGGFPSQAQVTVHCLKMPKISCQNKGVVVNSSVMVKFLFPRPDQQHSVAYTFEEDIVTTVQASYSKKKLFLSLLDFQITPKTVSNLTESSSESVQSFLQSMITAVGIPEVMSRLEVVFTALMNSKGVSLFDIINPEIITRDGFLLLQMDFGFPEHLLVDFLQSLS
Excerpt: In Vitro Radioactive Assays of CETP-Catalyzed CE and TG Transfer (RTA Assay)
Reagents and sources are: [3H] cholesteryl oleate (GE #TRK.886), [3H] Triolein (Perkin-Elmer NET-431), Butylated hydroxyl toluene (Aldrich, #D4740-4), DOPC (Sigma, # P6354), Sodium Bromide (Fisher scientific #S255-500), PEG 8000 (Fisher, #BP233-1), and human HDL (Intracel Corp #RP-036).
Both assays measure the transfer of [3H] cholesteryl oleate or [3H] triolein from exogenous LDL to HDL.
Radiolabeled donor particles are generated by first combining 100 μl of 200 μM butylated hydroxyl toluene in CHCl3, 216 μL of 21.57 mM DOPC in EtOH, and either 500 μCi [3H]-triolein (Perkin Elmer #NET-431) or 500 μCi [3H]-cholesteryl oleate (GE #TRK886) in a glass tube. Reagents are mixed, dried under nitrogen, and then resuspended in 2 mL of 50 mM Tris, 27 μM EDTA at pH 7.4. After a brief vortex, the solution is sonicated until clear and mixed with 20 mL of fresh human serum. The mixture is incubated overnight at 37° C. The [3H] labeled LDL substrate is separated at 1.063 g/ml density by sequential ultracentrifugal flotation in NaBr according to the method of Havel, Eder, et al., 1955, and Chapman, Goldstein, et al., 1981. Once isolated the particles are dialyzed 3× in CETP buffer (50 mM Tris, pH 7.4, 100 mM NaCl, 1 mM EDTA). Human HDL is purchased from Intracel and used as the acceptor particles.
Transfer assays are performed in a 96-well v-bottom polypropylene plate. For the RTA using recombinant CETP (2% RTA), an assay cocktail is prepared with the final concentrations 128 μg/mL HDL, 20 nM rCETP, 2% human serum, and 1×CETP buffer. 1 μL of each test compound diluted in DMSO is added to 47 μL of assay cocktail per well and incubated at 37° C. for 1 hour. To initiate the transfer reaction, 2 μL radiolabeled LDL is added. After an additional 60 min of incubation at 37° C., the transfer action is terminated by precipitation of LDL with an equal volume of 20% WN PEG 8000. The plates are centrifuged at 2000 rpm for 30 minutes at 4° C. A 40 μL aliquot of the HDL-containing supernatant is transferred to a Packard Optiplate™ with 200 μL of MicroScint™ 20. After mixing, plates are counted by liquid scintillation. Counts present in the supernatant for blanks (wells containing only HDL acceptor, CETP buffer and DMSO) are subtracted from those containing test compounds and used to correct for non-specific transfer.
This is then combined with HDL and CETP buffer and the reaction proceeds as above and is terminated as described.
Comparison of the counts of samples with inhibitors to an uninhibited (DMSO only) positive control yield a percent inhibition. A plot of percent inhibition vs. log of inhibitor concentration, fit to a Sigmoidal 4 parameter equation is used to calculate IC50.
Starting materials are commercially available or are made using known procedures or as shown below. The examples may be synthesized according to the general schemes provided below and by using the synthetic intermediates that are described. […] When compounds of Formula I are mentioned herein, such compounds include compounds defined generically by Formula I and also the specific examples disclosed herein.

[3] = Table 1, data generally obtained using the RTA assay in 95% human serum, read-out: IC50
[4] = RTA assay in 95% human serum, endogenous CETP, read-out: RTA (95% HS)

| SMILES | pIC50 [2, 3] | pIC50 [2, 4] | also measured |
| --- | --- | --- | --- |
| COc1cc(F)c(C(C)C)cc1-c1ccc(C(F)(F)F)cc1CN1C(=O)O[C@H](c2cc(C(F)(F)F)cc(C(F)(F)F)c2)[C@@H]1C [anacetrapib] | – | – | decrease of LDL-C [1]: 40%; increase of HDL-C [1]: 138% |
| COc1ccc(CCC(=O)O)cc1-c1ccc(C(F)(F)F)cc1[C@@H]1CC[C@H]2[C@@H](c3cc(C(F)(F)F)cc(C(F)(F)F)c3)NC(=O)N12 [Example 7, 3-[2′-{(1R,5S,7aS)-1-[3,5-bis(trifluoromethyl)phenyl]-3-oxohexahydro-1H-pyrrolo[1,2-c]imidazol-5-yl}-6-methoxy-4′-(trifluoromethyl)biphenyl-3-yl]propanoic acid] | 5.92 | – | – |
| COc1ccc(C2CCC(C(=O)O)CC2)cc1-c1ccc(C(F)(F)F)cc1[C@@H]1CC[C@H]2[C@@H](c3cc(C(F)(F)F)cc(C(F)(F)F)c3)NS(=O)(=O)N12 (stereo partly drawn) [Example 23, 4-[2′-{(3R,3aS,6S)-3-[3,5-bis(trifluoromethyl)phenyl]-1,1-dioxidohexahydropyrrolo[1,2-b][1,2,5]thiadiazol-6-yl}-6-methoxy-4′-(trifluoromethyl)biphenyl-3-yl]cyclohexanecarboxylic acid] | 6.57 | – | – |
| COc1ncc(-c2ccc(C(=O)NC3(C#N)CC3)cc2C)cc1-c1ccc(C(F)(F)F)cc1[C@@H]1CC[C@H]2[C@@H](c3cc(C(F)(F)F)cc(C(F)(F)F)c3)NC(=O)N12 [Example 2, 4-{5-[2-{(1R,5S,7aS)-1-[3,5-bis(trifluoromethyl)phenyl]-3-oxohexahydro-1H-pyrrolo[1,2-c]imidazol-5-yl}-4-(trifluoromethyl)phenyl]-6-methoxypyridin-3-yl}-N-(1-cyanocyclopropyl)-3-methylbenzamide] | – | 6.56 | – |
| COc1ccc(-c2ccc(C(=O)O)cc2C)cc1-c1ccc(C(F)(F)F)cc1[C@@H]1CC[C@H]2[C@@H](c3cc(C(F)(F)F)cc(C(F)(F)F)c3)NC(=O)N12 [Example 9] | 5.87 | – | – |
| COc1ccc(C2CCC(C(=O)O)CC2)cc1-c1ccc(C(F)(F)F)cc1[C@@H]1CC[C@H]2[C@@H](c3cc(C(F)(F)F)cc(C(F)(F)F)c3)NC(=O)N12 (stereo partly drawn) [Example 3, 4-(2′-((1R,5 S,7aS)-1-(3,5-bis(trifluoromethyl)phenyl)-3-oxohexahydro-1H-pyrrolo[1,2-c]imidazol-5-yl)-6-methoxy-4′-(trifluoromethyl)-[1,1′-biphenyl]-3-yl)cyclohexanecarboxylic acid] | – | 5.76 | – |
| COc1ccc(-c2ccc(C(=O)O)cc2C)cc1-c1ccc(C(F)(F)F)cc1[C@@H]1CC[C@H]2[C@@H](c3cc(C(F)(F)F)cc(C(F)(F)F)c3)NS(=O)(=O)N12 [Example 22, 2″-{(3R,3aS,6S)-3-[3,5-bis(trifluoromethyl)phenyl]-1,1-dioxidohexahydropyrrolo[1,2-b][1,2,5]thiadiazol-6-yl}-4′-methoxy-2-methyl-4″-(trifluoromethyl)-1,1′,:3′,1″-terphenyl-4-carboxylic acid] | 6.01 | – | – |
| COc1ncc(-c2ccc(C(=O)O)cc2C)cc1-c1ccc(C(F)(F)F)cc1[C@@H]1CC[C@H]2[C@@H](c3cc(C(F)(F)F)cc(C(F)(F)F)c3)NC(=O)N12 [Example 1, 4-(5-(2-((1R,5 S,7aS)-1-(3,5-bis(trifluoromethyl)phenyl)-3-oxohexahydro-1H-pyrrolo[1,2-c]imidazol-5-yl)-4-(trifluoromethyl)phenyl)-6-methoxypyridin-3-yl)-3-methylbenzoic acid] | – | 6.47 | – |
